In brackets after ≈: the same amount, converted by molar mass.
Experiments:
[1] = test system: ACINETOBACTER SP CMX 669; assay: In vitro MIC, agar dilution (BHIA); format: cell-based
[2] = Conversion of prodrug to parent drug in whole blood at 37° C.; format: in vitro ADME, Rat
Method: (§1) An aqueous solution of prodrug (Z) is spiked into fresh whole blood containing sodium heparin as an anticoagulant. The sample is mixed gently by inversion and placed in a 37° waterbath. At selected time intervals an 0.5 ml aliquot of blood is removed and placed in a chilled 1.5 ml centrifuge tube (ice temperature). Samples are centrifuges at 13,000 rpm for two minutes to separate plasma. An 0.2 ml aliquot of the plasma sample is combined with 0.2 ml internal standard (7-(4-amino-2-methyl-1-pyrrolidinyl)-1-(2,4-difluorophenyl)-6-fluoro-1,4-d ihydro-4-oxo-1,8-naphthyridine-3-carboxylic acid in 0.2M sodium phosphate pH 7.2 buffer) and 6 mls CH2 Cl2 :EtoH (9:1 by volume). Samples are capped and shaken gently for 10 minutes. Samples are centrifuges at 2500 rpm for 10 minutes (4° C.). The aqueous layer is aspirated to waste and the organic layer is transferred to a conical centrifuge tube and evaporated to dryness with a stream of dry air and low heat ([…]). Samples are reconstituted with 0.2 ml mobile phase followed by vortexing. Samples are centrifuges at 2500 rpm for 10 minutes to separate precipitate. The supernatant is transferred to a WISP vial with plastic insert for HPLC analysis.

[3] = test system: KLEBSIELLA PNEUMONIAE ATCC 8045; assay: In vitro MIC, agar dilution (BHIA); format: cell-based
[4] = test system: P. Aeruginosa A5007; assay: Acute mouse protection test; format: in vivo; conditions: mice infected i.p. with P. Aeruginosa A5007, observed 7 days
[5] = test system: PSEUDOMONAS CEPACIA 296I; assay: In vitro MIC, agar dilution (BHIA); format: cell-based
[6] = test system: E. Coli Juhl; assay: Acute mouse protection test; format: in vivo; conditions: mice infected i.p. with E. Coli JUHL, observed 7 days
[7] = test system: PROVIDENCIA STUARTII CMX 640; assay: In vitro MIC, agar dilution (BHIA); format: cell-based
[8] = test system: ESCHERICHIA COLI JUHL; assay: In vitro MIC, agar dilution (BHIA); format: cell-based
[9] = test system: STREPTOCOCCUS AGALACTIAE CMX 508; assay: In vitro MIC, agar dilution (BHIA); format: cell-based; conditions: STREPTOCOCCUS AGALACTIAE CMX 508
[10] = test system: ESCHERICHIA COLI SS; assay: In vitro MIC, agar dilution (BHIA); format: cell-based
Description: (§2) The MIC results are in ug/ml.

[11] = test system: ESCHERICHIA COLI DC-2; assay: In vitro MIC, agar dilution (BHIA); format: cell-based
Description: as §2

[12] = test system: ESCHERICHIA COLI H560; assay: In vitro MIC, agar dilution (BHIA); format: cell-based
Description: as §2

[13] = test system: PSEUDOMONAS AERUGINOSA K799/WT; assay: In vitro MIC, agar dilution (BHIA); format: cell-based
[14] = test system: ENTEROCOCCUS FAECIUM ATCC 8043; assay: In vitro MIC, agar dilution (BHIA); format: cell-based
[15] = test system: STREPTOCOCCUS BOVIS A5169; assay: In vitro MIC, agar dilution (BHIA); format: cell-based; conditions: STREPTOCOCCUS BOVIS A5169
[16] = Conversion of prodrug to parent drug in whole blood at 37° C.; format: in vitro ADME, Dog
[17] = test system: ESCHERICHIA COLI KNK 437; assay: In vitro MIC, agar dilution (BHIA); format: cell-based
[18] = test system: ENTEROBACTER AEROGENES ATCC 13048; assay: In vitro MIC, agar dilution (BHIA); format: cell-based
[19] = test system: MICROCOCCUS LUTEUS ATCC 9341; assay: In vitro MIC, agar dilution (BHIA); format: cell-based
[20] = test system: STREPTOCOCCUS PYOGENES EES61; assay: In vitro MIC, agar dilution (BHIA); format: cell-based; conditions: STREPTOCOCCUS PYOGENES EES61
[21] = test system: PSEUDOMONAS AERUGINOSA BMH10; assay: In vitro MIC, agar dilution (BHIA); format: cell-based
[22] = test system: Stap. Aureus NCTC 10649; assay: Acute mouse protection test; format: in vivo; conditions: mice infected i.p. with Stap. Aureus NCTC 10649, observed 7 days
[23] = Conversion of prodrug to parent drug in whole blood at 37° C.; format: in vitro ADME, Human
Method: as §1

[24] = test system: STREPTOCOCCUS PYOGENES 930 CONST; assay: In vitro MIC, agar dilution (BHIA); format: cell-based
[25] = test system: PSEUDOMONAS AERUGINOSA K799/61; assay: In vitro MIC, agar dilution (BHIA); format: cell-based
[26] = test system: STREPTOCOCCUS PYOGENES 2548 INDUC; assay: In vitro MIC, agar dilution (BHIA); format: cell-based
[27] = test system: MICROCOCCUS LUTEUS ATCC 4698; assay: In vitro MIC, agar dilution (BHIA); format: cell-based
[28] = test system: PSEUDOMONAS AERUGINOSA A5007; assay: In vitro MIC, agar dilution (BHIA); format: cell-based
[29] = SC dosing at 1 and 5 hours post-infection
[30] = oral dosing at 1 and 5 hours post-infection

In the case of `CC(N)C(=O)NC(C)C(=O)NC1CCN(c2nc3c(cc2F)c(=O)c(C(=O)O)cn3-c2ccc(F)cc2F)C1` (centres unmarked) [Example 15], the MIC [1] is reported as 12.5 µg/mL (≈ 22.9 µM), the “Half Life Rat” value [2] is reported as 1.41 min and the MIC [3] is reported as 12.5 µg/mL (≈ 22.9 µM). The “SC (ED50)” value [4, 29] was 3.1 mg/kg/day, the “Oral (ED50)” value [4, 30] was 9.1 mg/kg/day and the MIC [5] was 50 µg/mL (≈ 91.5 µM). For the same compound, the “SC (ED50)” value [6, 29] was 0.5 mg/kg/day, the “Oral (ED50)” value [6, 30] was 2.0 mg/kg/day and the MIC [7] was 100 µg/mL (≈ 183 µM). The MIC [8] was 12.5 µg/mL (≈ 22.9 µM), the MIC [9] was 12.5 µg/mL (≈ 22.9 µM) and the MIC [10] was “.39 µg/mL”. For the same compound, the MIC [11] was 100 µg/mL (≈ 183 µM), the MIC [12] was 6.2 µg/mL (≈ 11.3 µM) and the MIC [13] was 50 µg/mL (≈ 91.5 µM). The MIC [14] was 50 µg/mL (≈ 91.5 µM), the MIC [15] was 50 µg/mL (≈ 91.5 µM) and the “Half Life Dog” value [16] was 2.4 m. For the same compound, the “Solubility pH 7.4” value was 1.07 mg/ml, the MIC [17] was 50 µg/mL (≈ 91.5 µM) and the MIC [18] was 25 µg/mL (≈ 45.7 µM). The MIC [19] was > 100 µg/mL, the MIC [20] was 12.5 µg/mL (≈ 22.9 µM) and the MIC [21] was 100 µg/mL (≈ 183 µM). The “SC (ED50)” value [22, 29] was 0.8 mg/kg/day, the “Oral (ED50)” value [22, 30] was 1.3 mg/kg/day and the “Half Life Human” value [23] was 3.0 m. It also gave an MIC [24] of 12.5 µg/mL (≈ 22.9 µM), an MIC [25] of 3.1 µg/mL (≈ 5.67 µM) and an MIC [26] of 12.5 µg/mL (≈ 22.9 µM). The MIC [27] was 100 µg/mL (≈ 183 µM) and the MIC [28] was 100 µg/mL (≈ 183 µM).
